Measured values taken from PubChem BioAssay (NCI).
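A five-concentration, 48-hour dose response in 96-well plates underlies each endpoint, interpolated linearly between surrounding concentrations. Abbreviation: GI50, concentration required for 50% inhibition of growth. The concentration for full growth arrest is given as TGI.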

Tests used:
Assay in all cases: NCI tumour cell line growth inhibition, 48 h
HCT-116 colon = test system: HCT-116 colon
MALME-3M melanoma = test system: MALME-3M melanoma
PC-3 prostate = test system: PC-3 prostate
SF-268 CNS = test system: SF-268 CNS
NCI-H460 lung = test system: NCI-H460 lung
NCI-H226 lung = test system: NCI-H226 lung
UO-31 renal = test system: UO-31 renal
HL-60(TB) leukemia = test system: HL-60(TB) leukemia
KM12 colon = test system: KM12 colon
SK-MEL-2 melanoma = test system: SK-MEL-2 melanoma

c1ccc(-c2cnc(-c3ccc(-c4ncc(-c5ccccc5)o4)cc3)o2)cc1
TGI (HCT-116 colon): > 100 µM
TGI (MALME-3M melanoma): > 100 µM
TGI (PC-3 prostate): > 100 µM
TGI (SF-268 CNS): > 100 µM
TGI (NCI-H460 lung): > 100 µM
TGI (NCI-H226 lung): > 100 µM
TGI (UO-31 renal): > 100 µM
TGI (HL-60(TB) leukemia): > 100 µM
TGI (KM12 colon): > 100 µM

O=C1CC(Sc2nc3ccc(I)cc3c(=O)n2Cc2ccccc2)C(=O)NN1 (centres undefined)
TGI (HCT-116 colon): 29.1 µM
TGI (MALME-3M melanoma): 33.1 µM
TGI (PC-3 prostate): 30.7 µM
TGI (SF-268 CNS): 30.1 µM
TGI (NCI-H460 lung): 57.2 µM
TGI (SK-MEL-2 melanoma): 31.8 µM
TGI (NCI-H226 lung): 25.2 µM
TGI (UO-31 renal): 1.97 µM
TGI (HL-60(TB) leukemia): 38.4 µM
TGI (KM12 colon): 38.8 µM

CCc1nc2cc3cccnc3c(Cl)c2[nH]c1=O
TGI (HCT-116 colon): > 100 µM
TGI (MALME-3M melanoma): > 100 µM
TGI (PC-3 prostate): > 100 µM
TGI (SF-268 CNS): > 100 µM
TGI (NCI-H460 lung): > 100 µM
TGI (SK-MEL-2 melanoma): > 100 µM
TGI (NCI-H226 lung): > 100 µM
TGI (UO-31 renal): > 100 µM
TGI (HL-60(TB) leukemia): > 100 µM
TGI (KM12 colon): > 100 µM

Cc1cc2c(nn1)-c1ccccc1C2=O
TGI (HCT-116 colon): > 10 µM
TGI (MALME-3M melanoma): > 10 µM
TGI (PC-3 prostate): > 10 µM
TGI (SF-268 CNS): > 10 µM
TGI (NCI-H460 lung): > 10 µM
TGI (SK-MEL-2 melanoma): > 10 µM
TGI (NCI-H226 lung): > 10 µM
TGI (UO-31 renal): > 10 µM
TGI (HL-60(TB) leukemia): > 10 µM
TGI (KM12 colon): > 10 µM

N#Cc1c(C#N)c(-c2ccccc2)n(-c2ccccc2)c1N
TGI (HCT-116 colon): > 100 µM
TGI (MALME-3M melanoma): > 100 µM
TGI (PC-3 prostate): > 100 µM
TGI (SF-268 CNS): > 100 µM
TGI (SK-MEL-2 melanoma): > 100 µM
TGI (NCI-H226 lung): > 100 µM
TGI (UO-31 renal): > 100 µM
TGI (HL-60(TB) leukemia): > 100 µM
TGI (KM12 colon): > 100 µM

Cc1cc(/N=C/c2ccc(C#N)cc2)n(-c2ccccc2)n1
TGI (HCT-116 colon): > 100 µM
TGI (MALME-3M melanoma): > 100 µM
TGI (PC-3 prostate): > 100 µM
TGI (SF-268 CNS): > 100 µM
TGI (NCI-H460 lung): > 100 µM
TGI (SK-MEL-2 melanoma): > 100 µM
TGI (NCI-H226 lung): > 100 µM
TGI (UO-31 renal): > 100 µM
TGI (HL-60(TB) leukemia): 76.6 µM
TGI (KM12 colon): > 100 µM

COc1ccc(N=Nc2c3c(c(O)c4ccccc24)CCC(C)(C)O3)cc1
TGI (HCT-116 colon): 28.9 µM
TGI (MALME-3M melanoma): 40.6 µM
TGI (PC-3 prostate): 87 µM
TGI (SF-268 CNS): 31.5 µM
TGI (NCI-H460 lung): 29.8 µM
TGI (SK-MEL-2 melanoma): 40.3 µM
TGI (NCI-H226 lung): > 100 µM
TGI (UO-31 renal): 35.2 µM
TGI (HL-60(TB) leukemia): 50.1 µM
TGI (KM12 colon): 29.5 µM

CC(C)(C)C(=O)C(Cc1ccccc1)C(=O)C(C)(C)C
TGI (HCT-116 colon): > 100 µM
TGI (MALME-3M melanoma): > 100 µM
TGI (PC-3 prostate): > 100 µM
TGI (SF-268 CNS): > 100 µM
TGI (NCI-H460 lung): > 100 µM
TGI (SK-MEL-2 melanoma): > 100 µM
TGI (NCI-H226 lung): > 100 µM
TGI (UO-31 renal): > 100 µM
TGI (HL-60(TB) leukemia): > 100 µM
TGI (KM12 colon): > 100 µM

CC1=CC(=O)C(C(O)(C(F)(F)F)C(F)(F)F)C(C)(C)C1 (centres undefined)
TGI (HCT-116 colon): > 10 µM
TGI (MALME-3M melanoma): > 10 µM
TGI (PC-3 prostate): > 10 µM
TGI (SF-268 CNS): > 10 µM
TGI (NCI-H460 lung): > 10 µM
TGI (SK-MEL-2 melanoma): > 10 µM
TGI (NCI-H226 lung): > 10 µM
TGI (UO-31 renal): > 10 µM
TGI (HL-60(TB) leukemia): > 10 µM
TGI (KM12 colon): > 10 µM

CC(C)(C)c1ccc(OCC(=O)O)c(Cl)c1
TGI (HCT-116 colon): > 100 µM
TGI (MALME-3M melanoma): > 100 µM
TGI (PC-3 prostate): > 100 µM
TGI (SF-268 CNS): > 100 µM
TGI (NCI-H460 lung): > 100 µM
TGI (SK-MEL-2 melanoma): > 100 µM
TGI (NCI-H226 lung): > 100 µM
TGI (UO-31 renal): > 100 µM
TGI (HL-60(TB) leukemia): > 100 µM
TGI (KM12 colon): > 100 µM

CC(O)CC(O)(C(F)(F)F)C(F)(F)F (centres undefined)
TGI (HCT-116 colon): > 10 µM
TGI (MALME-3M melanoma): > 10 µM
TGI (PC-3 prostate): > 10 µM
TGI (SF-268 CNS): > 10 µM
TGI (NCI-H460 lung): > 10 µM
TGI (SK-MEL-2 melanoma): > 10 µM
TGI (NCI-H226 lung): > 10 µM
TGI (UO-31 renal): > 10 µM
TGI (HL-60(TB) leukemia): > 10 µM
TGI (KM12 colon): > 10 µM

CCCCC/C(C=O)=C\c1ccccc1
TGI (HCT-116 colon): > 100 µM
TGI (PC-3 prostate): > 100 µM
TGI (SF-268 CNS): > 100 µM
TGI (NCI-H460 lung): > 100 µM
TGI (SK-MEL-2 melanoma): > 100 µM
TGI (NCI-H226 lung): > 100 µM
TGI (UO-31 renal): > 100 µM
TGI (HL-60(TB) leukemia): > 100 µM
TGI (KM12 colon): > 100 µM

Nc1nc(Nc2ccccc2)sc1C(=O)c1c[nH]c2ccccc12
TGI (HCT-116 colon): 19.5 µM
TGI (MALME-3M melanoma): 34.5 µM
TGI (PC-3 prostate): 25.3 µM
TGI (SF-268 CNS): 33.8 µM
TGI (NCI-H460 lung): 13.6 µM
TGI (SK-MEL-2 melanoma): 29.8 µM
TGI (NCI-H226 lung): 29.7 µM
TGI (UO-31 renal): 13.1 µM
TGI (HL-60(TB) leukemia): 46.2 µM
TGI (KM12 colon): 24.4 µM

Cc1c2ccncc2c(C)c2c1[nH]c1ccccc12
TGI (HCT-116 colon): 1.68 µM
TGI (MALME-3M melanoma): 4.92 µM
GI50 (PC-3 prostate): 1.2 µM
TGI (PC-3 prostate): 8.55 µM
TGI (SF-268 CNS): 3.38 µM
TGI (NCI-H460 lung): 1.32 µM
TGI (SK-MEL-2 melanoma): 6.79 µM
TGI (NCI-H226 lung): 5.46 µM
TGI (UO-31 renal): 4.62 µM
TGI (HL-60(TB) leukemia): 6.78 µM
TGI (KM12 colon): 2.36 µM

COC(=O)C1(Cc2ccc3c(c2)CCC3)Cc2cc3c(cc2C1)CCC3
TGI (HCT-116 colon): > 100 µM
TGI (PC-3 prostate): > 100 µM
TGI (SF-268 CNS): > 100 µM
TGI (NCI-H460 lung): > 100 µM
TGI (SK-MEL-2 melanoma): 49.3 µM
TGI (NCI-H226 lung): > 100 µM
TGI (UO-31 renal): > 100 µM
TGI (HL-60(TB) leukemia): 77.8 µM
TGI (KM12 colon): > 100 µM

COC(=O)[C@H](Cc1ccccc1)NC(=O)c1ccc(CNC(=O)/C=C/c2cccc(Oc3ccccc3)c2)cc1
TGI (HCT-116 colon): > 100 µM
TGI (MALME-3M melanoma): 30.4 µM
TGI (PC-3 prostate): > 100 µM
TGI (SF-268 CNS): 59.3 µM
TGI (NCI-H460 lung): > 100 µM
TGI (SK-MEL-2 melanoma): 27.7 µM
TGI (NCI-H226 lung): > 100 µM
TGI (UO-31 renal): > 100 µM
TGI (KM12 colon): > 100 µM

C=C1C(=O)OC2/C=C(/C)C3(O)OC(C)(CC(OC(=O)C(C)C)C12)CC3OC(C)=O (centres undefined)
TGI (HCT-116 colon): > 100 µM
TGI (MALME-3M melanoma): 36.5 µM
TGI (PC-3 prostate): 62.9 µM
TGI (SF-268 CNS): > 100 µM
TGI (NCI-H460 lung): 25 µM
TGI (SK-MEL-2 melanoma): 49.7 µM
TGI (NCI-H226 lung): > 87 µM
TGI (UO-31 renal): 22.2 µM
TGI (HL-60(TB) leukemia): > 19.7 µM
TGI (KM12 colon): 41 µM

COc1cc(C=C2C(=O)NC(=S)NC2=O)cc(OC)c1OC
TGI (HCT-116 colon): > 100 µM
TGI (MALME-3M melanoma): > 100 µM
TGI (PC-3 prostate): > 100 µM
TGI (SF-268 CNS): > 100 µM
TGI (NCI-H460 lung): > 100 µM
TGI (SK-MEL-2 melanoma): > 100 µM
TGI (NCI-H226 lung): > 100 µM
TGI (UO-31 renal): > 100 µM
TGI (HL-60(TB) leukemia): > 100 µM
TGI (KM12 colon): > 100 µM

O=C1CS(=O)C23c4cc5ccccc5n4CCC2CCCN13 (centres undefined)
TGI (HCT-116 colon): > 100 µM
TGI (MALME-3M melanoma): > 100 µM
TGI (PC-3 prostate): > 100 µM
TGI (SF-268 CNS): > 100 µM
TGI (SK-MEL-2 melanoma): > 100 µM
TGI (NCI-H226 lung): > 100 µM
TGI (HL-60(TB) leukemia): > 100 µM
TGI (KM12 colon): > 100 µM

O=C1CCc2ccc3c(c21)CC1(Cc2ccccc2C1)C3
TGI (HCT-116 colon): 17.6 µM
TGI (MALME-3M melanoma): 70.5 µM
TGI (PC-3 prostate): > 100 µM
TGI (SF-268 CNS): > 100 µM
TGI (NCI-H460 lung): 20.6 µM
TGI (SK-MEL-2 melanoma): 38.7 µM
TGI (NCI-H226 lung): 67.8 µM
TGI (UO-31 renal): 34 µM
TGI (HL-60(TB) leukemia): 7.03 µM
TGI (KM12 colon): 46 µM

O=C1c2cccc(NCCNCCO)c2C(=O)c2cccc(NCCNCCO)c21
TGI (HCT-116 colon): 4.77 µM
TGI (MALME-3M melanoma): 3.65 µM
TGI (PC-3 prostate): 3.02 µM
TGI (SF-268 CNS): 2.15 µM
TGI (NCI-H460 lung): 7.43 µM
TGI (SK-MEL-2 melanoma): 2.77 µM
TGI (NCI-H226 lung): 3.51 µM
TGI (UO-31 renal): 25.9 µM
TGI (HL-60(TB) leukemia): 5.19 µM
TGI (KM12 colon): 4.48 µM
